In ChEMBL document CHEMBL1157500, “Spiroleptosphol isolated from Leptosphaeria doliolum” (Bioorg Med Chem Lett, 2008):
Converted amounts (≈) assume the structure as drawn.

Test system: P388
Experiment: Cytotoxicity against mouse P388 cells
Type: functional, cell-based

Compound: C=C1OC(=O)[C@@]2([C@H](/C=C/[C@H](C)C[C@H](C)CC)C=C[C@@H](O)[C@@H]2O)[C@H]1O [SPIROLEPHTOSHOL]
- EC50: 20 µg/mL (≈ 59.4 µM)
